According to US8003649B2 (AstraZeneca AB, priority 2007, dated 2011):

Target: T1, Androgen Receptor (AR) (Homo sapiens, UniProt P10275, T878A)
T1 construct: cell based immuno-fluorescence assay using the LNCaP prostate epithelial cell line; endogenous in cells; host or cells: LNCaP clone FGC (ATCC CRL-1740)
T1 sequence (P10275 1-920 T878A): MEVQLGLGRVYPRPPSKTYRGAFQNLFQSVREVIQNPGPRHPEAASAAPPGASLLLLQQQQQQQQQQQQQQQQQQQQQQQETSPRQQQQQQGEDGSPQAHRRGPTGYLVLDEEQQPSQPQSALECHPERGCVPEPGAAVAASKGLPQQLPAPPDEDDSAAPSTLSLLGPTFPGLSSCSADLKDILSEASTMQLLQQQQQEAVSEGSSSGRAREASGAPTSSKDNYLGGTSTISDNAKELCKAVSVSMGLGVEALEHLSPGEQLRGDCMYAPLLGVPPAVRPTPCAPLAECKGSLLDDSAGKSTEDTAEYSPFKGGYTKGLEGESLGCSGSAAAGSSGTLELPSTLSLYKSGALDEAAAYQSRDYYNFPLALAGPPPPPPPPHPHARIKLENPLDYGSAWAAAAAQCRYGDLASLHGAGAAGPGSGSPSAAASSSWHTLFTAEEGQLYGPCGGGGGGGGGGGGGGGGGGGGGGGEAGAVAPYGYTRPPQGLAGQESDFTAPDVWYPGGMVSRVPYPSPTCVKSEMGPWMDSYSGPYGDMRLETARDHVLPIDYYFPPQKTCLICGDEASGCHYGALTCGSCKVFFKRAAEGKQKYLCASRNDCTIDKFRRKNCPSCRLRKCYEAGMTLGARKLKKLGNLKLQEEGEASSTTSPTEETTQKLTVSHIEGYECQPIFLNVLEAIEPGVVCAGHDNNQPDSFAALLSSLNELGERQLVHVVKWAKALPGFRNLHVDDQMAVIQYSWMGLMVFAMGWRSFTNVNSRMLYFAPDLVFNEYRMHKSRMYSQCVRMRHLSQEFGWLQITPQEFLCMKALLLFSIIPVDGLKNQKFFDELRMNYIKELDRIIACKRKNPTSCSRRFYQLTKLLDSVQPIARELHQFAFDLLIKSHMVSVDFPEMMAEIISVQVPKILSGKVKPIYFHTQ
Experiment: LNCaP Androgen Receptor Down-regulation Cell Assay (immunofluorescence end point)
Assay type: cell-based
Conditions: LNCaP prostate carcinoma cells, compound incubation 20-22 hours, 50% reduction of the AR signal; read-out: Androgen Receptor Down-regulation Assay (a) IC50/μM
Method in brief: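 AR loss reported as IC50 from curve fits of fluorescence dose-response data, with AR immunostained and read by laser-scanning cytometry. Compound exposure was 20-22 h at 37° C in LNCaP cells grown in 5% charcoal-stripped FBS and plated overnight beforehand.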

SMILES | DC50 [µM]
CCOc1ccc(CN2CCN(c3ccc4nnc(C(F)(F)F)n4n3)CC2)cc1 [Example 108, 6-[4-[(4-ethoxyphenyl)methyl]piperazin-1-yl]-3-(trifluoromethyl)-[1,2,4]triazolo[4,3-b]pyridazine] | 2.3
CCCCOc1ccc(CN2CCN(c3ccc4nnc(C(F)(F)F)n4n3)CC2)cc1 [Example 109, 6-[4-[(4-butoxyphenyl)methyl]piperazin-1-yl]-3-(trifluoromethyl)-[1,2,4]triazolo[4,3-b]pyridazine] | 7.2
CN(C)CCCOc1ccc(CN2CCN(c3ccc4nnc(C(F)(F)F)n4n3)CC2)cc1 [Example 112, N,N-dimethyl-3-[4-[[4-[3-(trifluoromethyl)-[1,2,4]triazolo[4,3-b]pyridazin-6-yl]piperazin-1-yl]methyl]phenoxy]propan-1-amine] | 4.7
FC(F)(F)c1nnc2ccc(N3CCN(Cc4ccc(-c5cccnc5)cc4)CC3)nn12 [Example 117, 6-[4-[(4-pyridin-3-ylphenyl)methyl]piperazin-1-yl]-3-(trifluoromethyl)-[1,2,4]triazolo[4,3-b]pyridazine] | 1.7
FC(F)(F)c1nnc2ccc(N3CCN(Cc4cccc(Oc5ccc(Cl)cc5)c4)CC3)nn12 [Example 119, 6-[4-[[3-(4-chlorophenoxy)phenyl]methyl]piperazin-1-yl]-3-(trifluoromethyl)-[1,2,4]triazolo[4,3-b]pyridazine] | 2.2
COc1ccc(Oc2cccc(CN3CCN(c4ccc5nnc(C(F)(F)F)n5n4)CC3)c2)cc1 [Example 120, 6-[4-[[3-(4-methoxyphenoxy)phenyl]methyl]piperazin-1-yl]-3-(trifluoromethyl)-[1,2,4]triazolo[4,3-b]pyridazine] | 1.7
Cc1ccc(Sc2ccc(CN3CCN(c4ccc5nnc(C(F)(F)F)n5n4)CC3)cn2)cc1 [Example 124, 6-[4-[[6-(4-methylphenyl)sulfanylpyridin-3-yl]methyl]piperazin-1-yl]-3-(trifluoromethyl)-[1,2,4]triazolo[4,3-b]pyridazine] | 1.7
Fc1ccc(-c2cccc(CN3CCN(c4ccc5nnc(C(F)(F)F)n5n4)CC3)c2)cc1 [Example 125, 6-[4-[[3-(4-fluorophenyl)phenyl]methyl]piperazin-1-yl]-3-(trifluoromethyl)-[1,2,4]triazolo[4,3-b]pyridazine] | 1.9
Fc1ccc(Oc2ccc(CN3CCN(c4ccc5nnc(C(F)(F)F)n5n4)CC3)cc2)cc1 [Example 126, 6-[4-[[4-(4-fluorophenoxy)phenyl]methyl]piperazin-1-yl]-3-(trifluoromethyl)-[1,2,4]triazolo[4,3-b]pyridazine] | 2
FC(F)(F)c1nnc2ccc(N3CCN(Cc4ccc(Br)cc4)CC3)nn12 [Example 127, 6-[4-[(4-bromophenyl)methyl]piperazin-1-yl]-3-(trifluoromethyl)-[1,2,4]triazolo[4,3-b]pyridazine] | 1.5
CCN(CC)c1ccc(CN2CCN(c3ccc4nnc(C(F)(F)F)n4n3)CC2)cc1 [Example 128, N,N-diethyl-4-[[4-[3-(trifluoromethyl)-[1,2,4]triazolo[4,3-b]pyridazin-6-yl]piperazin-1-yl]methyl]aniline] | 2.3
C=CCOc1ccc(CN2CCN(c3ccc4nnc(C(F)(F)F)n4n3)CC2)cc1 [Example 139, 6-[4-[(4-prop-2-enoxyphenyl)methyl]piperazin-1-yl]-3-(trifluoromethyl)-[1,2,4]triazolo[4,3-b]pyridazine] | 2

More lines, in order of falling DC50, values ahead:

DC50 [µM] | SMILES
7.2 | CC(=O)Nc1ccc(CN2CCN(c3ccc4nnc(C(F)(F)F)n4n3)CC2)cc1 [Example 107, N-[4-[[4-[3-(trifluoromethyl)-[1,2,4]triazolo[4,3-b]pyridazin-6-yl]piperazin-1-yl]methyl]phenyl]acetamide]
7.1 | FC(F)(F)c1nnc2ccc(N3CCN(Cc4ccc(N5CCCC5)cc4)CC3)nn12 [Example 113, 6-[4-[(4-pyrrolidin-1-ylphenyl)methyl]piperazin-1-yl]-3-(trifluoromethyl)-[1,2,4]triazolo[4,3-b]pyridazine]
6.5 | CC(C)(C)Oc1ccc(CN2CCN(c3ccc4nnc(C(F)(F)F)n4n3)CC2)cc1 [Example 114, 6-[4-[[4-[(2-methylpropan-2-yl)oxy]phenyl]methyl]piperazin-1-yl]-3-(trifluoromethyl)-[1,2,4]triazolo[4,3-b]pyridazine]
4.9 | CCS(=O)(=O)c1ccc(CN2CCN(c3ccc4nnc(C(F)(F)F)n4n3)CC2)cc1 [Example 135, 6-[4-[(4-ethylsulfonylphenyl)methyl]piperazin-1-yl]-3-(trifluoromethyl)-[1,2,4]triazolo[4,3-b]pyridazine]
4.8 | COC(=O)c1ccc(CN2CCN(c3ccc4nnc(C(F)(F)F)n4n3)CC2)cc1 [Example 121, methyl 4-[[4-[3-(trifluoromethyl)-[1,2,4]triazolo[4,3-b]pyridazin-6-yl]piperazin-1-yl]methyl]benzoate]
4.3 | CC(C)(C)c1ccc(CN2CCN(c3ccc4nnc(C(F)(F)F)n4n3)CC2)cc1 [Example 122, 6-[4-[(4-tert-butylphenyl)methyl]piperazin-1-yl]-3-(trifluoromethyl)-[1,2,4]triazolo[4,3-b]pyridazine]
4.1 | CC(C)Cc1ccc(CN2CCN(c3ccc4nnc(C(F)(F)F)n4n3)CC2)cc1 [Example 123, 6-[4-[[4-(2-methylpropyl)phenyl]methyl]piperazin-1-yl]-3-(trifluoromethyl)-[1,2,4]triazolo[4,3-b]pyridazine]
4.1 | FC(F)(F)Oc1ccc(CN2CCN(c3ccc4nnc(C(F)(F)F)n4n3)CC2)cc1 [Example 131, 6-[4-[[4-(trifluoromethoxy)phenyl]methyl]piperazin-1-yl]-3-(trifluoromethyl)-[1,2,4]triazolo[4,3-b]pyridazine]
2.6 | FC(F)(F)c1nnc2ccc(N3CCN(Cc4ccc(Oc5ccc(Cl)cc5)cc4)CC3)nn12 [Example 132, 6-[4-[[4-(4-chlorophenoxy)phenyl]methyl]piperazin-1-yl]-3-(trifluoromethyl)-[1,2,4]triazolo[4,3-b]pyridazine]
2.5 | CC(C)Oc1ccc(CN2CCN(c3ccc4nnc(C(F)(F)F)n4n3)CC2)cc1 [Example 115, 6-[4-[(4-propan-2-yloxyphenyl)methyl]piperazin-1-yl]-3-(trifluoromethyl)-[1,2,4]triazolo[4,3-b]pyridazine]
1.8 | CC(C)c1ccc(CN2CCN(c3ccc4nnc(C(F)(F)F)n4n3)CC2)cc1 [Example 130, 6-[4-[(4-propan-2-ylphenyl)methyl]piperazin-1-yl]-3-(trifluoromethyl)-[1,2,4]triazolo[4,3-b]pyridazine]
1.8 | FC(F)(F)c1nnc2ccc(N3CCN(Cc4ccc(-c5ccccn5)cc4)CC3)nn12 [Example 134, 6-[4-[(4-pyridin-2-ylphenyl)methyl]piperazin-1-yl]-3-(trifluoromethyl)-[1,2,4]triazolo[4,3-b]pyridazine]
1.5 | FC(F)(F)c1nnc2ccc(N3CCN(Cc4ccc(Cl)nc4)CC3)nn12 [Example 137, 6-[4-[(6-chloropyridin-3-yl)methyl]piperazin-1-yl]-3-(trifluoromethyl)-[1,2,4]triazolo[4,3-b]pyridazine]
1.1 | FC(F)(F)Sc1cccc(CN2CCN(c3ccc4nnc(C(F)(F)F)n4n3)CC2)c1 [Example 116, 3-(trifluoromethyl)-6-[4-[[3-(trifluoromethylsulfanyl)phenyl]methyl]piperazin-1-yl]-[1,2,4]triazolo[4,3-b]pyridazine]
0.99 | CSc1ccc(CN2CCN(c3ccc4nnc(C(F)(F)F)n4n3)CC2)cc1 [Example 129, 6-[4-[(4-methylsulfanylphenyl)methyl]piperazin-1-yl]-3-(trifluoromethyl)-[1,2,4]triazolo[4,3-b]pyridazine]
0.77 | O=[N+]([O-])c1ccc(CN2CCN(c3ccc4nnc(C(F)(F)F)n4n3)CC2)cc1 [Example 111, 6-[4-[(4-nitrophenyl)methyl]piperazin-1-yl]-3-(trifluoromethyl)-[1,2,4]triazolo[4,3-b]pyridazine]
0.3 | FC(F)(F)c1nnc2ccc(N3CCN(Cc4cccc(Br)c4)CC3)nn12 [Example 118, 6-[4-[(3-bromophenyl)methyl]piperazin-1-yl]-3-(trifluoromethyl)-[1,2,4]triazolo[4,3-b]pyridazine]
